Source: ChEMBL document CHEMBL1201862, “PubChem BioAssay data set” (2004)
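Following 48 hours of exposure in 96-well plates, responses at five concentrations were used to interpolate endpoints linearly. GI50 marks 50% less growth.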 Activity calls are given as the source filed them. Cut-off read from the data, not from the text of the source: active = GI50 up to about 1.1 µM and inactive = higher.

Experiments:
Test in all cases: DTP human tumour cell line panel, 48 h
[1] = test system: NCI-H23
[2] = test system: NCI-H460
[3] = test system: LOX IMVI
[4] = test system: MOLT-4
[5] = test system: SK-MEL-28
[6] = test system: OVCAR-8
[7] = test system: SF-295
[8] = test system: UACC-257
[9] = test system: M19-MEL
[10] = test system: HCT-116
[11] = test system: SK-MEL-2
[12] = test system: OVCAR-5
[13] = test system: Malme-3M
[14] = test system: OVCAR-4
[15] = test system: IGROV-1
[16] = test system: SF-539
[17] = test system: HCT-15
[18] = test system: KM12
[19] = test system: RXF 631
[20] = test system: U-251
[21] = test system: HOP-62
[22] = test system: KM-20L2
[23] = test system: SR
[24] = test system: M14
[25] = test system: OVCAR-3
[26] = test system: ACHN
[27] = test system: SNB-78
[28] = test system: HT-29
[29] = test system: SK-MEL-5
[30] = test system: HCC 2998
[31] = test system: LXFL 529
[32] = test system: SW-620
[33] = test system: COLO 205
[34] = test system: A549
[35] = test system: DMS-273
[36] = test system: K562
[37] = test system: CCRF-CEM
[38] = test system: SF-268
[39] = test system: EKVX
[40] = test system: UO-31
[41] = test system: UACC-62
[42] = test system: HL-60
[43] = test system: DMS-114
[44] = test system: SN12C
[45] = test system: RXF 393
[46] = test system: HOP-92
[47] = test system: RPMI-8226
[48] = test system: SNB-75
[49] = test system: DLD-1
[50] = test system: HOP-18
[51] = test system: SK-OV-3
[52] = test system: NCI-H226
[53] = test system: A498

Q: Which results are given for `COc1ccc(Oc2ccccc2N)cc1`?
A: GI50 [1]: 43 µM (inactive); GI50 [2]: 30.6 µM (inactive); GI50 [3]: 81.1 µM (inactive); GI50 [4]: 18 µM (inactive); GI50 [5]: 28.2 µM (inactive); GI50 [6]: 56.2 µM (inactive); GI50 [7]: 26.1 µM (inactive); GI50 [8]: 57.4 µM (inactive); GI50 [9]: 50.2 µM (inactive); GI50 [10]: 17.2 µM (inactive); GI50 [11]: 57 µM (inactive); GI50 [12]: 48.6 µM (inactive); GI50 [13]: > 100 µM (inactive); GI50 [14]: 57.3 µM (inactive); GI50 [15]: 36.6 µM (inactive); GI50 [16]: 20.2 µM (inactive); GI50 [17]: 9.51 µM; GI50 [18]: 20.9 µM (inactive); GI50 [19]: > 100 µM (inactive); GI50 [20]: 12.4 µM (inactive); GI50 [21]: 35.2 µM (inactive); GI50 [22]: 27.6 µM (inactive); GI50 [23]: 18.3 µM (inactive); GI50 [24]: 58.7 µM (inactive); GI50 [25]: 26.4 µM (inactive); GI50 [26]: 24.5 µM (inactive); GI50 [27]: > 100 µM (inactive); GI50 [28]: 39.9 µM (inactive); GI50 [29]: 13.2 µM (inactive); GI50 [30]: 20.8 µM (inactive); GI50 [31]: 10.4 µM (inactive); GI50 [32]: 59 µM (inactive); GI50 [33]: 16.6 µM (inactive); GI50 [34]: 38.1 µM (inactive); GI50 [35]: 29.5 µM (inactive); GI50 [36]: 29.5 µM (inactive); GI50 [37]: 10.7 µM (inactive); GI50 [38]: 42.1 µM (inactive); GI50 [39]: 93.8 µM (inactive); GI50 [40]: 26.5 µM (inactive); GI50 [41]: 19.3 µM (inactive); GI50 [42]: 21 µM (inactive); GI50 [43]: 37.2 µM (inactive); GI50 [44]: 44.8 µM (inactive); GI50 [45]: 19.8 µM (inactive); GI50 [46]: 96.2 µM (inactive); GI50 [47]: 31.8 µM (inactive); GI50 [48]: 23.7 µM (inactive); GI50 [49]: 30 µM (inactive); GI50 [50]: > 100 µM (inactive); GI50 [51]: > 100 µM (inactive); GI50 [52]: 41.9 µM (inactive); GI50 [53]: > 100 µM (inactive)
